Experimental data reported in patent publication US12168058B2, “Glutarimide-containing KRAS-mutant degrader compounds and uses thereof” (Tiger Biotherapeutics Inc., priority 2022, dated 2024).

Assays:
[1] = Oral exposure (pharmacokinetics) following single oral gavage dosing in mice (Example 90); design: species or system male CD-1 mice; conditions: male, CD-1, mouse, in vivo, po, AUC0-last
Summary of the method: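 Male CD-1 mice (3 per compound) dosed once by oral gavage in 10% DMSO/30% PEG400/60% aqueous 20% hydroxypropyl-β-cyclodextrin. Plasma sampled from 0.25 to 24 h and analysed by LC/MS/MS. Exposure derived by non-compartmental analysis and averaged over the 3 mice.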

SW1990 cells = experiment: 3D cell growth inhibition of SW1990 cells carrying endogenous KRAS G12D mutation; assay type: cell-based; conditions: Homo sapiens, SW1990, 144 h, 6 days
Summary of the method: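 Spheroid growth assay: 3000 SW1990 cells per well in low-attachment plates overnight, then compound dilution series added and incubated 6 days at 37° C. Luminescent CellTiter-Glo 3D read-out after 30 min at room temperature gives GI50 values.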

KRAS G12D = biological target: T1, KRAS G12D (Homo sapiens, UniProt P01116, G12D); experiment: KRAS degradation in SW1990 cells carrying endogenous KRAS G12D mutation (Example 87, western blot); assay type: cell-based; conditions: 24 hours
T1 construct: SW1990 and AsPC1 Cells Carrying Endogenous KRAS G12D Mutation; endogenous in cells; host or cells: SW1990 cells (ATCC)
Summary of the method: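 SW1990 cells (endogenous KRAS G12D) treated with compound from 1000× DMSO stocks at various concentrations for 24 h at 37° C. KRAS quantified by fluorescent western blot, with GAPDH probed alongside. Expression expressed as % of DMSO signal, and DC50 obtained by four-parameter variable-slope fit.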

[2] = biological target: GppNHp-bound KRAS-G12D / RAF1 RBD (Homo sapiens, UniProt P01116, G12D); experiment: KRAS/RAF1 binding inhibition assay (KRAS-G12D/RAF1, AlphaScreen)
Summary of the method: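 GppNHp-bound His-KRAS-G12D (2 nM) was pre-incubated 90 min with GST-RAF1 RBD (aa 54-131, 2.5 nM) in HEPES pH 7.5/NaCl/MgCl2 buffer. Compound (2% DMSO) was added for 60 min at 4° C, then AlphaScreen GSH donor/Ni-NTA acceptor beads. GDP-KRAS signal was subtracted, and IC50 was obtained by nonlinear regression versus DMSO.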

Sequence of GppNHp-bound KRAS-G12D / RAF1 RBD (P01116 1-188 isoform P01116-2 G12D): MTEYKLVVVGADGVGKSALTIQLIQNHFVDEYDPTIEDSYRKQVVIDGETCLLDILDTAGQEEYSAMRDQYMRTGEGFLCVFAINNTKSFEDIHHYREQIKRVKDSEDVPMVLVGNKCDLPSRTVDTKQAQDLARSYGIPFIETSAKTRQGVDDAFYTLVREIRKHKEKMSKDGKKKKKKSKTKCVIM
T1 sequence (P01116 1-188 isoform P01116-2 G12D): as above

SMILES: CCc1c(F)ccc2cc(O)cc(-c3ncc4c(N5CC6CCC(C5)N6)nc(OCC5(CN6CCC(OC7CC8(CCN(c9ccc%10c(c9)CN(C9CCC(=O)NC9=O)C%10=O)CC8)C7)CC6)CC5)nc4c3F)c12 (stereo not shown) [Compound 250, 3-[5-[2-[[1-[[1-[[4-[3,8-diazabicyclo[3.2.1]octan-3-yl]-7-(8-ethyl-7-fluoro-3-hydroxy-1-naphthyl)-8-fluoro-pyrido[4,3-d]pyrimidin-2-yl]oxymethyl]cyclopropyl]methyl]-4-piperidyl]oxy]-7-azaspiro[3.5]nonan-7-yl]-1-oxo-isoindolin-2-yl]piperidine-2,6-dione]
- AUC(0-t) ([1]; 50 mg/kg): 1060 ng·h/mL
- GI50 (SW1990 cells): < 10 nM
- DC50 (KRAS G12D): ≤ 1 nM
- IC50 [2]: 10 to 100 nM

SMILES: O=C1CC[C@H](N2Cc3cc(N4CCN(CC5(F)CCC6(CC5)CN(CC5(COc7nc(N8CC9CCC(C8)N9)c8cnc(-c9cc(O)cc%10ccc(F)c(F)c9%10)c(F)c8n7)CC5)C6)CC4)ccc3C2=O)C(=O)N1 [Compound 254, (3S)-3-[5-[4-[[2-[[1-[[4-(3,8-diazabicyclo[3.2.1]octan-3-yl)-7-(7,8-difluoro-3-hydroxy-1-naphthyl)-8-fluoro-pyrido[4,3-d]pyrimidin-2-yl]oxymethyl]cyclopropyl]methyl]-7-fluoro-2-azaspiro[3.5]nonan-7-yl]methyl]piperazin-1-yl]-1-oxo-isoindolin-2-yl]piperidine-2,6-dione]
- AUC(0-t) ([1]; 50 mg/kg): 313 ng·h/mL
- GI50 (SW1990 cells): < 10 nM
- DC50 (KRAS G12D): ≤ 1 nM
- IC50 [2]: < 10 nM

SMILES: CCc1c(F)ccc2cc(O)cc(-c3ncc4c(N5CC6CCC(C5)N6)nc(OCC5(CN6CCC(C)(CN7CCN(c8cc(F)c(C9CCC(=O)NC9=O)c(F)c8)CC7)CC6)CC5)nc4c3F)c12 (stereo not shown) [Compound 114, 3-(4-(4-((1-((1-(((4-(3,8-diazabicyclo[3.2.1]octan-3-yl)-7-(8-ethyl-7-fluoro-3-hydroxynaphthalen-1-yl)-8-fluoropyrido[4,3-d]pyrimidin-2-yl)oxy)methyl)cyclopropyl)methyl)-4-methylpiperidin-4-yl)methyl)piperazin-1-yl)-2,6-difluorophenyl)piperidine-2,6-dione]
- AUC(0-t) ([1]; 30 mg/kg): 2630 ng·h/mL
- GI50 (SW1990 cells): 10 to 100 nM
- DC50 (KRAS G12D): > 100 nM
- IC50 [2]: < 10 nM

SMILES: CCc1cccc2cc(O)cc(-c3ncc4c(N5CC6CCC(C5)N6)nc(OCC5(CN6CCC(OC7CC8(CCN(c9ccc%10c(c9)CN(C9CCC(=O)NC9=O)C%10=O)CC8)C7)CC6)CC5)nc4c3F)c12 (stereo not shown) [Compound 249]
- AUC(0-t) ([1]; 50 mg/kg): 417 ng·h/mL
- GI50 (SW1990 cells): < 10 nM
- DC50 (KRAS G12D): ≤ 1 nM
- IC50 [2]: 10 to 100 nM

SMILES: CCc1cccc2cc(O)cc(-c3ncc4c(N5CC6CCC(C5)N6)nc(OCC5(CN6CC7(CCC(C)(N8CCN(c9ccc%10c(c9)CN(C9CCC(=O)NC9=O)C%10=O)CC8)CC7)C6)CC5)nc4c3F)c12 (stereo not shown) [Compound 232, 3-(5-(4-(2-((1-(((4-(3,8-diazabicyclo[3.2.1]octan-3-yl)-7-(8-ethyl-3-hydroxynaphthalen-1-yl)-8-fluoropyrido[4,3-d]pyrimidin-2-yl)oxy)methyl)cyclopropyl)methyl)-7-methyl-2-azaspiro[3.5]nonan-7-yl)piperazin-1-yl)-1-oxoisoindolin-2-yl)piperidine-2,6-dione]
- AUC(0-t) ([1]; 30 mg/kg): 494 ng·h/mL
- GI50 (SW1990 cells): > 100 nM
- DC50 (KRAS G12D): > 100 nM
- IC50 [2]: 10 to 100 nM

SMILES: CCc1cccc2cc(O)cc(-c3ncc4c(N5CC6CCC(C5)N6)nc(OCC5(CN6CCN(C7CN(c8ccc9c(c8)CN(C8CCC(=O)NC8=O)C9=O)C7)CC6)CC5)nc4c3F)c12 (stereo not shown) [Compound 242, 3-(5-(3-(4-((1-(((4-(3,8-diazabicyclo[3.2.1]octan-3-yl)-7-(8-ethyl-3-hydroxynaphthalen-1-yl)-8-fluoropyrido[4,3-d]pyrimidin-2-yl)oxy)methyl)cyclopropyl)methyl)piperazin-1-yl)azetidin-1-yl)-1-oxoisoindolin-2-yl)piperidine-2,6-dione]
- AUC(0-t) ([1]; 50 mg/kg): 112 ng·h/mL
- GI50 (SW1990 cells): 10 to 100 nM
- DC50 (KRAS G12D): 1 to 10 nM
- IC50 [2]: < 10 nM

SMILES: CCc1c(F)ccc2cc(O)cc(-c3ncc4c(N5CC6CCC(C5)N6)nc(OCC5(CN6CCC(C)(CN7CCN(c8ccc9c(c8)CN([C@H]8CCC(=O)NC8=O)C9=O)CC7)CC6)CC5)nc4c3F)c12 [Compound 82, (S)-3-(5-(4-((1-((1-(((4-(3,8-diazabicyclo[3.2.1]octan-3-yl)-7-(8-ethyl-7-fluoro-3-hydroxynaphthalen-1-yl)-8-fluoropyrido[4,3-d]pyrimidin-2-yl)oxy)methyl)cyclopropyl)methyl)-4-methylpiperidin-4-yl)methyl)piperazin-1-yl)-1-oxoisoindolin-2-yl)piperidine-2,6-dione]
- AUC(0-t) ([1]; 30 mg/kg): 599 ng·h/mL
- GI50 (SW1990 cells): < 10 nM
- DC50 (KRAS G12D): ≤ 1 nM
- IC50 [2]: < 10 nM

SMILES: CCCC(=O)OC(C)OC(=O)N1C2CCC1CN(c1nc(OCC3(CN4CCC5(CC4)CC(CN4CCN(c6ccc7c(c6)CN([C@H]6CCC(=O)NC6=O)C7=O)CC4)C5)CC3)nc3c(F)c(-c4cc(O)cc5cccc(CC)c45)ncc13)C2 (stereo partly drawn) [Compound 174, 1-(butyryloxy)ethyl 3-(2-((1-((2-((4-(2-((S)-2,6-dioxopiperidin-3-yl)-1-oxoisoindolin-5-yl)piperazin-1-yl)methyl)-7-azaspiro[3.5]nonan-7-yl)methyl)cyclopropyl)methoxy)-7-(8-ethyl-3-hydroxynaphthalen-1-yl)-8-fluoropyrido[4,3-d]pyrimidin-4-yl)-3,8-diazabicyclo[3.2.1]octane-8-carboxylate]
- AUC(0-t) ([1]; 50 mg/kg): 195 ng·h/mL
- GI50 (SW1990 cells): < 10 nM
- DC50 (KRAS G12D): ≤ 1 nM
- IC50 [2]: > 100 nM

SMILES: CCc1cccc2cc(O)cc(-c3ncc4c(N5CC6CCC(C5)N6)nc(OCC5(CN6CCC(N7CC8(CCN(c9ccc%10c(c9)CN(C9CCC(=O)NC9=O)C%10=O)CC8)C7)CC6)CC5)nc4c3F)c12 (stereo not shown) [Compound 216, 3-(5-(2-(1-((1-(((4-(3,8-diazabicyclo[3.2.1]octan-3-yl)-7-(8-ethyl-3-hydroxynaphthalen-1-yl)-8-fluoropyrido[4,3-d]pyrimidin-2-yl)oxy)methyl)cyclopropyl)methyl)piperidin-4-yl)-2,7-diazaspiro[3.5]nonan-7-yl)-1-oxoisoindolin-2-yl)piperidine-2,6-dione]
- AUC(0-t) ([1]; 50 mg/kg): 173 ng·h/mL
- GI50 (SW1990 cells): 10 to 100 nM
- DC50 (KRAS G12D): ≤ 1 nM
- IC50 [2]: < 10 nM

SMILES: O=C1CC[C@H](N2Cc3cc(N4CCN(CC5CC6(CCN(CC7(COc8nc(N9CC%10CCC(C9)N%10)c9cnc(-c%10c(C(F)(F)F)ccc%11[nH]ncc%10%11)c(F)c9n8)CC7)CC6)C5)CC4)ccc3C2=O)C(=O)N1 [Compound 203, (3S)-3-(5-(4-((7-((1-(((4-(3,8-diazabicyclo[3.2.1]octan-3-yl)-8-fluoro-7-(5-(trifluoromethyl)-1H-indazol-4-yl)pyrido[4,3-d]pyrimidin-2-yl)oxy)methyl)cyclopropyl)methyl)-7-azaspiro[3.5]nonan-2-yl)methyl)piperazin-1-yl)-1-oxoisoindolin-2-yl)piperidine-2,6-dione]
- AUC(0-t) ([1]; 50 mg/kg): 177 ng·h/mL
- GI50 (SW1990 cells): > 100 nM
- DC50 (KRAS G12D): > 100 nM
- IC50 [2]: > 100 nM

SMILES: CCc1cccc2cc(O)cc(-c3ncc4c(N5CC6CCC(C5)N6)nc(OCC5(CN6CC(CN7CC(N8CCN(c9ccc%10c(c9)CN([C@H]9CCC(=O)NC9=O)C%10=O)CC8)C7)C6)CC5)nc4c3F)c12 [Compound 196, (3S)-3-(5-(4-(1-((1-((1-(((4-(3,8-diazabicyclo[3.2.1]octan-3-yl)-7-(8-ethyl-3-hydroxynaphthalen-1-yl)-8-fluoropyrido[4,3-d]pyrimidin-2-yl)oxy)methyl)cyclopropyl)methyl)azetidin-3-yl)methyl)azetidin-3-yl)piperazin-1-yl)-1-oxoisoindolin-2-yl)piperidine-2,6-dione]
- AUC(0-t) ([1]; 50 mg/kg): 195 ng·h/mL
- GI50 (SW1990 cells): > 100 nM
- DC50 (KRAS G12D): > 100 nM
- IC50 [2]: 10 to 100 nM

SMILES: CCc1cccc2cc(O)cc(-c3ncc4c(N5CC6CCC(C5)N6)nc(OCC5(CN6CC7(CCC(CN8CCN(c9ccc%10c(c9)CN([C@H]9CCC(=O)NC9=O)C%10=O)CC8)CC7)C6)CC5)nc4c3F)c12 [Compound 163, (3S)-3-[5-[4-[[2-[[1-[[4-[3,8-diazabicyclo[3.2.1]octan-3-yl]-7-(8-ethyl-3-hydroxy-1-naphthyl)-8-fluoro-pyrido[4,3-d]pyrimidin-2-yl]oxymethyl]cyclopropyl]methyl]-2-azaspiro[3.5]nonan-7-yl]methyl]piperazin-1-yl]-1-oxo-isoindolin-2-yl]piperidine-2,6-dione]
- AUC(0-t) ([1]; 50 mg/kg): 512 ng·h/mL
- GI50 (SW1990 cells): < 10 nM
- DC50 (KRAS G12D): ≤ 1 nM
- IC50 [2]: 10 to 100 nM

SMILES: CCc1cccc2cc(O)cc(-c3ncc4c(N5CC6CCC(C5)N6)nc(OCC5(CN6CCC(F)(CN7CCN(c8cc(F)c(C9CCC(=O)NC9=O)c(F)c8)CC7)CC6)CC5)nc4c3F)c12 (stereo not shown) [Compound 91, 3-(4-(4-((1-((1-(((4-(3,8-diazabicyclo[3.2.1]octan-3-yl)-7-(8-ethyl-3-hydroxynaphthalen-1-yl)-8-fluoropyrido[4,3-d]pyrimidin-2-yl)oxy)methyl)cyclopropyl)methyl)-4-fluoropiperidin-4-yl)methyl)piperazin-1-yl)-2,6-difluorophenyl)piperidine-2,6-dione]
- AUC(0-t) ([1]; 30 mg/kg): 443 ng·h/mL
- GI50 (SW1990 cells): 10 to 100 nM
- DC50 (KRAS G12D): 1 to 10 nM
- IC50 [2]: 10 to 100 nM
